From patent publication US3976771A, “Glycylglycine amide preparations and method of use antiarrhythmic” (priority 1972, dated 1976)
Entries after “also recorded” stand apart in the source; their conditions may differ.

Legend:
[1] = system: mice; assay: Acute oral toxicity in mice; format: in vivo; conditions: deaths during 7 days
Description: For determination of acute toxicity groups of 10 mice were treated orally with varying doses of compound observing the incidence of death, during a 7 days period. LD50 and LD 0.1 were calculated by means of a logarithmic-probit graph paper.

[2] = system: ventricular fibrillation upon exposure to chloroform vapor; assay: Protection against chloroform-induced ventricular fibrillation in mice; format: in vivo
Description: The method used in mice was essentially the same as described by Lawson (J. Pham. Exp. Therap. 160, 22 (1968). Male mice (NMRI, 17-25 g) were used. Unanesthetized, untreated mice show cardiac ventricular fibrillation upon exposure to chloroform vapor. The ventricular fibrillation is abolished if the animals are pretreated with appropriate doses of known antiarrhythmic agents before exposure to chloroform.
For determination of antiarrhythmic effect groups of 10 mice were pretreated by the oral route with varying sublethal doses of compound 10 to 300 min. respectively before being placed individually in a beaker containing chloroform. The mouse was removed from the beaker at the time of respiratory arrest and the thorax opened. Examination of ventricular fibrillation was made by means of ECG-recordings (lead II). The effect of the compound was expressed as the number of animals in per cent which were protected from fibrillation.

[3] = system: aconitine-induced arrhythmias; assay: Protection against aconitine-induced arrhythmias in the guinea-pig; format: in vivo; conditions: for Dose of aconitine necessary for development of ECG-changes indicating Asystolie / Dose of aconitine necessary for development of ECG-changes indicating Fibrillation / Dose of aconitine necessary for development of ECG-changes indicating Tachycardia: 15 min before aconitine infusion, mean ± standard error
Description: The procedure used by Vargaftig et al. (Eur. J. Pharmacol. 6, 49, 1969) was slightly modified; Guinea-pigs of both sexes (250-400 g) were anaesthetized with uretane (1 g/kg bodyweight, i.p.). A plastic tube was introduced into the trachea and a thin plastic catheter into the jugular vein. Respiration was supported by means of a Harward Rodent Respirator 680. Aconitine was infused i.v. at a rate of 3 μg/min by means of a Palmer slow injection apparatus. The ECG (lead II) was continuously monitored. The amount of aconitine (μg/kg bodyweight) injected to induce ventricular tachycardia, fibrillation and asystolie was calculated. Test compounds were given i.p. with different time intervals between injection of drug and start of aconitine infusion.

[4] = system: ventricular arrhythmias produced by coronary artery ligation; assay: Ventricular arrhythmias produced by coronary artery ligation in unanesthetized dogs; format: in vivo; conditions: two dogs, constant i.v. infusion 0.5 mg/kg/min
Description: The effects of intravenous infusion of GEA968 was also studies on two unanesthesized dogs with ventricular arrhythmias produced by coronary artery ligation, essentially following the procedure of A. S. Harris, Circulation, Vol. I, page 1318 (1950). The two dogs with well-developed arrhythmias received a constant infusion of 0.5 mg/kg/min. of GEA968.

[5] = system: contractility of the heart; assay: Qualitative observation of side effects in the animal tests; format: in vivo; conditions: preliminary indication
Description: However, it was qualitatively observed that the side effects of the compounds of the present invention appeared to be less significant.

[6] = due to low levels of the drug in the blood; cited from earlier work
[7] = 100 mg/kg p.o., 10 min between pretreatment and chloroform vapor
[8] = 100 mg/kg p.o., 60 min between pretreatment and chloroform vapor

Structure (SMILES) | LD 0.1 (the dose which kills 0.1 % of the animals) [1] [mg/kg bodyweight] | Toxicity LD50 p.o. [1] [mg/kg bodyweight] | Percentage animals protected from fibrillation [2, 7] [per cent] | Percentage animals protected from fibrillation [2, 8] [per cent] | Percentage animals protected from fibrillation ([2]; 250 mg/kg p.o., 10 min) [per cent] | Percentage animals protected from fibrillation ([2]; 250 mg/kg p.o., 60 min) [per cent] | Dose of aconitine necessary for development of ECG-changes indicating Asystolie ([3]; 25 mg/kg i.p.) [μg/kg bodyweight] | Dose of aconitine necessary for development of ECG-changes indicating Fibrillation ([3]; 25 mg/kg i.p.) [μg/kg bodyweight] | Dose of aconitine necessary for development of ECG-changes indicating Tachycardia ([3]; 25 mg/kg i.p.) [μg/kg bodyweight] | Dose of aconitine necessary for development of ECG-changes indicating Asystolie ([3]; 100 mg/kg i.p.) [μg/kg bodyweight] | Dose of aconitine necessary for development of ECG-changes indicating Fibrillation ([3]; 100 mg/kg i.p.) [μg/kg bodyweight] | Dose of aconitine necessary for development of ECG-changes indicating Tachycardia ([3]; 100 mg/kg i.p.) [μg/kg bodyweight] | Percentage animals protected from fibrillation ([2]; 500 mg/kg p.o., 10 min) [per cent] | Percentage animals protected from fibrillation ([2]; 500 mg/kg p.o., 60 min) [per cent] | other results
CCN(CC)CC(=O)NCC(=O)Nc1c(C)cccc1C [GEA 968, N,N-diethylglycylglycine-2,6-xylidide] | 250 | 535 | 70 | 65 | 90 | 90 | 210 ± 12 | 155 ± 10 | 91 ± 6 | 632 ± 132 | 356 ± 32 | 225 ± 35 | – | – | Percentage animals protected from fibrillation ([2]; 54 mg/kg p.o. (one tenth of LD50), 10 min): 45 per cent; Percentage animals protected from fibrillation ([2]; 54 mg/kg p.o. (one tenth of LD50), 60 min): 55 per cent; Percentage animals protected from fibrillation ([2]; 54 mg/kg p.o. (one tenth of LD50), 300 min): 15 per cent; Percentage animals protected from fibrillation ([2]; 100 mg/kg p.o., 300 min between pretreatment and chloroform vapor): 45 per cent; Percentage animals protected from fibrillation ([2]; 250 mg/kg p.o., 300 min): 70 per cent; Antiarrhythmic effect in the chloroform test (in words) ([2]; mice, p.o.): good antiarrhythmic effects; Duration of antiarrhythmic effectiveness (in words) ([2]; mouse, in vivo): especially significant; Dose of aconitine necessary for development of ECG-changes indicating Asystolie ([3]; 50 mg/kg i.p.): 378 ± 33 μg/kg bodyweight; Dose of aconitine necessary for development of ECG-changes indicating Fibrillation ([3]; 50 mg/kg i.p.): 284 ± 25 μg/kg bodyweight; Dose of aconitine necessary for development of ECG-changes indicating Tachycardia ([3]; 50 mg/kg i.p.): 161 ± 15 μg/kg bodyweight; Antiarrhythmic effect in the aconitine test (in words) ([3]; guinea-pig, i.p.): markedly potent; also recorded: good antiarrhythmic effects; Duration of suppression of arrhythmias [4]: unusually long duration; Effect on ventricular arrhythmias [4]: suppression of the arrhythmias; Effect on contractility of the heart (qualitative) [5]: improving the contractility of the heart
CCN(CC)CC(=O)NCC(=O)NC(C)(C)c1ccccc1 [GEA 980, N^3,N^3 -diethyl-N^1 -(α,α-dimethylbenzyl) glycylglycine amide] | – | > 500 | 11 | 10 | – | – | – | – | – | – | – | – | 65 | 0 | Percentage animals protected from fibrillation ([2]; 300 mg/kg p.o., 10 min): 25 per cent; Percentage animals protected from fibrillation ([2]; 300 mg/kg p.o., 60 min): 10 per cent
CCN(CC)CC(=O)N[C@@H](C)C(=O)NC(C)(C)c1ccccc1 [GEA 981, N^3,N^3 -diethyl-N^1 -(α,α-dimethylbenzyl)glycylalanineamide] | 610 | 880 | – | – | – | – | – | – | – | – | – | – | – | – | Percentage animals protected from fibrillation ([2]; 88 mg/kg p.o. (one tenth of LD50), 10 min): 35 per cent; Percentage animals protected from fibrillation ([2]; 88 mg/kg p.o. (one tenth of LD50), 60 min): 10 per cent; Percentage animals protected from fibrillation ([2]; 610 mg/kg p.o. (LD 0.1), 10 min): 90 per cent; Percentage animals protected from fibrillation ([2]; 610 mg/kg p.o. (LD 0.1), 60 min): 45 per cent
CCN(CC)[C@@H](C)C(=O)N[C@@H](C)C(=O)NC(C)(C)c1ccccc1 [GEA 982, N^3,N^3 -diethyl-N^1 -(α,α-dimethylbenzyl)alanylalanineamide] | 210 | 660 | – | – | – | – | – | – | – | – | – | – | – | – | Percentage animals protected from fibrillation ([2]; 66 mg/kg p.o. (one tenth of LD50), 10 min): 0 per cent; Percentage animals protected from fibrillation ([2]; 66 mg/kg p.o. (one tenth of LD50), 60 min): 0 per cent; Percentage animals protected from fibrillation ([2]; 210 mg/kg p.o. (LD 0.1), 10 min): 40 per cent; Percentage animals protected from fibrillation ([2]; 210 mg/kg p.o. (LD 0.1), 60 min): 15 per cent
CCN(CC)CC(=O)NCC(=O)Nc1ccccc1 [GEA 984, N,N-diethylglycylglycine anilide] | – | > 1000 | – | – | 0 | 0 | – | – | – | 284 ± 29 | 211 ± 18 | 95 ± 9 | 70 | 10 | Percentage animals protected from fibrillation ([2]; 1000 mg/kg p.o., 10 min): 75 per cent; Percentage animals protected from fibrillation ([2]; 1000 mg/kg p.o., 60 min): 0 per cent
CCN(CC)CC(=O)Nc1c(C)cccc1C [Lidocaine, 2-diethylamino-2', 6'-acetoxylidide, reference compound] | 150 | – | – | – | – | – | 237 ± 35 | 176 ± 12 | 66 ± 7 | – | – | – | – | – | Oral antiarrhythmic effectiveness [6]: not orally effective
